Tests used:
Assay type in all cases: functional
Human gammaherpesvirus 4 [1] = experiment: In vitro ability of compound to induce Epstein-Barr virus early antigen (EBV-EA) activity at 10 e-6 M concentration
Human gammaherpesvirus 4 [2] = experiment: In vitro ability of compound to induce Epstein-Barr virus early antigen (EBV-EA) activity at 10 e-7 M concentration
Human gammaherpesvirus 4 [3] = experiment: In vitro ability of compound to induce Epstein-Barr virus early antigen (EBV-EA) activity at 10 e-5 M concentration

Row | Structure (SMILES) | Activity (Human gammaherpesvirus 4 [1]) [%] | Activity (Human gammaherpesvirus 4 [2]) [%] | Activity (Human gammaherpesvirus 4 [3]) [%]
1 | CC(C)[C@H]1C(=O)N[C@H](CO)Cc2c[nH]c3ccc4c(c23)N1[C@H](C)C4 | 14.1 | 1.2 | 16
2 | Cc1ccc2[nH]cc3c2c1N(C)[C@@H](C(C)C)C(=O)N[C@H](CO)C3 | 1.4 | 0.3 | 9.4
3 | CC(C)[C@H]1C(=O)N[C@H](CO)Cc2c[nH]c3cccc(c23)N1C [INDOLACTUM] | 19 | 7.7 | 35
4 | CC(C)[C@H]1C(=O)N[C@H](CO)Cc2c[nH]c3ccc4c(c23)N1[C@@H](C)C4 | 0.8 | 0.2 | 17.8
5 | Cc1cc2ccc3[nH]cc4c3c2n1[C@@H](C(C)C)C(=O)N[C@H](CO)C4 | 34 | 12.7 | 36.1
